pIC50: −log10 of the molar value. Like-named read-outs stand apart in the source and are kept apart here. Peptide text beside a SMILES is read from it.
Tests used:
[1] = target: NTSR1 (Homo sapiens, UniProt P30989); type: binding
[2] = in situ brain perfusion assay; cited from earlier work
[3] = competition with [3H]-NT on HT29 cells expressing NTSR1

NTSR1, sequence (P30989 whole entry, the tested form may be a part): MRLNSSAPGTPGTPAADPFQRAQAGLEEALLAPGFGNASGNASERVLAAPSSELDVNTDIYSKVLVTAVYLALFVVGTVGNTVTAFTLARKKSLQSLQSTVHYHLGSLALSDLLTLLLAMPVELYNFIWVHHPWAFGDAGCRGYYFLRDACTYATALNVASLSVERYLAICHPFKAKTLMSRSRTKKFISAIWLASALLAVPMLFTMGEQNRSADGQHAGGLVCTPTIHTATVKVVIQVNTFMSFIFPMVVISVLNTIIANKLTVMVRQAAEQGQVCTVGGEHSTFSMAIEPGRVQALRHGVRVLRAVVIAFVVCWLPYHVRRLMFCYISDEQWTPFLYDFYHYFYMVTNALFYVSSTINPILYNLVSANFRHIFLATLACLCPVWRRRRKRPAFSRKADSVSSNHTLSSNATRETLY

Row | pIC50 ([1]; HT29 cells, [3H]-NT, values in the text (FIGS. 21, 22)) | pIC50 [1, 3] | Molecule | transport across the BBB relative to Angiopep-1 (250 nM) [2] [%]
1 | 5.27 | < 7.00 | CC[C@H](C)[C@H](NC(=O)[C@@H](Cc1ccc(O)cc1)NC(=O)[C@@H]1CCCN1C(=O)[C@H](CCCNC(=N)N)NC(=O)[C@H](CCCNC(=N)N)NC(=O)C(CCCCNC(=O)CCCCCN1C(=O)CC(SC[C@H](NC(=O)[C@H](Cc2ccc(O)cc2)NC(=O)[C@H](CCC(=O)O)NC(=O)[C@H](CCC(=O)O)NC(=O)[C@@H](NC(=O)[C@H](CCCCN)NC(=O)[C@H](Cc2ccccc2)NC(=O)[C@H](CC(N)=O)NC(=O)[C@H](CC(N)=O)NC(=O)[C@H](CCCNC(=N)N)NC(=O)[C@H](CCCCN)NC(=O)CNC(=O)[C@H](CCCNC(=N)N)NC(=O)[C@H](CO)NC(=O)CNC(=O)CNC(=O)[C@H](Cc2ccc(O)cc2)NC(=O)[C@H](Cc2ccccc2)NC(=O)[C@H](Cc2ccccc2)NC(=O)[C@@H](N)[C@@H](C)O)[C@@H](C)O)C(N)=O)C1=O)NC(C)=O)C(=O)N[C@@H](CC(C)C)C(=O)O (stereo partly drawn) [Ac-Lys-[D-Tyr^11]NT(8-13)-An2] | –
2 | – | 9.00 | CC[C@H](C)[C@H](NC(=O)[C@H](Cc1ccc(O)cc1)NC(=O)[C@@H]1CCCN1C(=O)[C@H](CCCNC(=N)N)NC(=O)[C@H](CCCNC(=N)N)NC(=O)[C@H](CCCCN)NC(C)=O)C(=O)N[C@@H](CC(C)C)C(=O)O [AcLys-NT(8-13)] (Ac-KRRPYIL-OH) | –
3 | – | – | T F F Y G G S R G K R N N F R T E E Y (TFFYGGSRGKRNNFRTEEY) [Angiopep-6] | 38.5

From patent publication US9914754B2, “Conjugates of neurotensin or neurotensin analogs and uses thereof” (Angiochem Inc., priority 2008, dated 2018)
